Experimental data published in patent US20200087625A1, “METHODS FOR ISOLATING, EXPANDING AND ADMINISTERING CANCER SPECIFIC CD8+ T CELLS” (priority 2017, published 2020).

System: dendritic cells
Test: Dendritic cell activation and CD8+ T cell recruitment in mLN and lungs
Assay type: in vivo, BALB/c mice
Conditions: day 7
Method: FIGS. 25A-25F. Innate immune cells, NK cells and dendritic cells are activated following 1V270 therapy and contribute to anti-metastatic effects (A-C) Systemic administration of 1V270 activates dendritic cells and increases CD8^+ cell recruitment in the lung draini lymph node. (A) BALB/c mice (n=S/group) were treated with 1V270 on day −1 and then tumor cells were i.v. administered on day 0. Seven days later, mediastinal lymph node (mLN) cells were stained for dendritic cells (DC; CD45^+CD11c^+MHC classll^+). (B) DCs were further stained for CD80 and CD86. (C) The mLN cells were also stained for central memory CD8^+ T cells (CD3+CD8^+CD44^+CD62L^+), effector memory CD8^+ T cells (CD3+CD8^+CD44^+CD62L^+), and naive CD8^+ T cells (CD3+CD8^+CD44^−CD62L^−). Each dot indicates an individual mouse and horizontal and vertical bars indicate means±SEM. Data are representative of 3 independent experiments showing similar results. *P<0.05, **P<0.01 by Mann-Whitney U test comparing the individual groups. (D-F) In vivo imaging analyses using GLF•expressing 4T1 cells (4T1-GLF). (D) BALB/c mice (n=14-15/group) were i.p, administered with 200 μg 1V270 or vehicle. Next day, 2×10^4 4T1-GLF cells were i.v. injected through the tail vein. Tumor signals were quantified by IVIS. Data (mean±SEM) were pooled from 3 independent experiments showing similar results. *P<0.05, **P<0.01 by two-way ANOVA using a Bonferroni post hoc test comparing treatment groups against the vehicle group. […] (E,F) NK cells recruited by 1V270 therapy prevent colonization of 4T1 cells. (E) BALB/c mice (n=G−7/group) were treated with 1V270 (200 μg/injection) on day −1 and then tumor cells were i.v. administered on day 0. On the next day, lung cells were stained for NK markers (CD45^+[…] NKp46^+CD49^+) and analyzed by flow cytometry. […] Tumor signals were analyzed as described above. […]
Since the 1V270 therapy induced a tumor-specific CD8^+ T cell response in the 4T1 model, we evaluated whether the therapy activated APCs in the lungs, and/or in the draining lymph nodes. […]

CCCCCCCCC=CCCCCCCCC(=O)OCC(COP(=O)(O)OCCNC(=O)c1ccc(Cn2c(=O)[nH]c3c(N)nc(OCCOC)nc32)cc1)OC(=O)CCCCCCCC=CCCCCCCCC (stereo not drawn) [1V270]
frequencies of cells expressing co-stimulatory molecules (CD80 or CD86) (1V270 i.p. day -1): significantly increased | recruitment of CD8+ T cells (central memory, effector memory, naive) (mLN): recruitment of CD8^+ T cells with memory and nalve phenotypes | population of CD11c+ dendritic cells (mLNs and lungs, 1V270 i.p. day -1): increased in both mLNs and the lungs
